The data set in a line: Solubility, hygroscopicity and moisture sensitivity of AKST-4290 API. The data set is classed as physicochemical. From the text: Applicant has been able to prevent degradation utilizing the wax coating process described herein. This technique reduced the coating time and limited water uptake of core tablets improving impurity profile at T-0.
Specifically, the wax was applied as a sub-coat to the core tablets. In the case of AKST-4290, one of the purposes of this wax coat was to protect the API in the tablets from moisture. […] Although the relative humidity can be controlled during the upstream process of creating the tablet, this cannot be achieved in a coating process with aqueous solutions.

The values below come from patent publication US20240285539A1, “PROTECTIVE COATING FOR MOISTURE SENSITIVE PHARMACEUTICAL COMPOSITIONS” (R.P. Scherer Technologies, LLC, priority 2021, published 2024).

For `Cc1cc(C(=O)N(C)C)cc(NC(=O)[C@H]2CCC(=O)N2C2CCN(Cc3ccc(Cl)c(C)c3)CC2)n1` [AKST-4290], where the note is “in words”, the “Hygroscopicity of API” value is on record as “highly hygroscopic” and the “Solubility of API” value is on record as “highly soluble”. Moreover, the “Stability on exposure to humidity” value (relative humidity over 40%, even for a couple of minutes) is “undergoes both physical and chemical changes”.
